Data: US20140120232A1, “ACID TASTE/ACID SMELL-REDUCING AGENT” (T. HASEGAWA CO., LTD., priority 2011, published 2014)

Experiment: Sensory evaluation of Vermont drink containing the agent
Settings: ten panels
Procedure, shortened: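 Tridecadienal or tridecatrienal isomers added at various concentrations to a Vermont-flavoured drink (apple-cider vinegar, honey, liquid sugar, citric acid, trisodium citrate, 100 mL total). Ten panelists assessed acid taste/acid smell and aldehyde-type off-odour, and the concentration giving the best acid taste/smell quality was selected.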

CCCCC/C=C\C/C=C\CCC=O [(Z,Z)-4,7-tridecadienal]
A: number of panels, acid taste/acid smell extreme and cause irritation (0.005 ppt): 10 | B: number of panels, acid taste/acid smell slightly strong and slightly cause irritation (0.005 ppt): 0 | C: number of panels, acid taste/acid smell slightly unpleasant (0.005 ppt): 0 | Flavor judgment: number of panels who judged acid taste/acid smell quality the highest (0.005 ppt): 0 | N: number of panels, irritation of acid reduced to give a mild acid taste (0.005 ppt): 0 | X: number of panels, acid taste reduced but piercing odor characteristic to aldehydes unpleasant (0.005 ppt): 0 | A: number of panels, acid taste/acid smell extreme and cause irritation (0.02 ppt): 8 | B: number of panels, acid taste/acid smell slightly strong and slightly cause irritation (0.02 ppt): 1 | C: number of panels, acid taste/acid smell slightly unpleasant (0.02 ppt): 1 | Flavor judgment: number of panels who judged acid taste/acid smell quality the highest (0.02 ppt): 0 | N: number of panels, irritation of acid reduced to give a mild acid taste (0.02 ppt): 0 | X: number of panels, acid taste reduced but piercing odor characteristic to aldehydes unpleasant (0.02 ppt): 0 | A: number of panels, acid taste/acid smell extreme and cause irritation (0.1 ppt): 6 | B: number of panels, acid taste/acid smell slightly strong and slightly cause irritation (0.1 ppt): 2 | C: number of panels, acid taste/acid smell slightly unpleasant (0.1 ppt): 2 | Flavor judgment: number of panels who judged acid taste/acid smell quality the highest (0.1 ppt): 0 | N: number of panels, irritation of acid reduced to give a mild acid taste (0.1 ppt): 0 | X: number of panels, acid taste reduced but piercing odor characteristic to aldehydes unpleasant (0.1 ppt): 0 | A: number of panels, acid taste/acid smell extreme and cause irritation (0.2 ppt): 5 | B: number of panels, acid taste/acid smell slightly strong and slightly cause irritation (0.2 ppt): 3 | C: number of panels, acid taste/acid smell slightly unpleasant (0.2 ppt): 2 | Flavor judgment: number of panels who judged acid taste/acid smell quality the highest (0.2 ppt): 0 | N: number of panels, irritation of acid reduced to give a mild acid taste (0.2 ppt): 0 | X: number of panels, acid taste reduced but piercing odor characteristic to aldehydes unpleasant (0.2 ppt): 0 | A: number of panels, acid taste/acid smell extreme and cause irritation (0.5 ppt): 1 | B: number of panels, acid taste/acid smell slightly strong and slightly cause irritation (0.5 ppt): 1 | C: number of panels, acid taste/acid smell slightly unpleasant (0.5 ppt): 3 | Flavor judgment: number of panels who judged acid taste/acid smell quality the highest (0.5 ppt): 1 | N: number of panels, irritation of acid reduced to give a mild acid taste (0.5 ppt): 5 | X: number of panels, acid taste reduced but piercing odor characteristic to aldehydes unpleasant (0.5 ppt): 0 | A: number of panels, acid taste/acid smell extreme and cause irritation (1 ppb): 0 | B: number of panels, acid taste/acid smell slightly strong and slightly cause irritation (1 ppb): 0 | C: number of panels, acid taste/acid smell slightly unpleasant (1 ppb): 3 | Flavor judgment: number of panels who judged acid taste/acid smell quality the highest (1 ppb): 0 | N: number of panels, irritation of acid reduced to give a mild acid taste (1 ppb): 3 | X: number of panels, acid taste reduced but piercing odor characteristic to aldehydes unpleasant (1 ppb): 4 | A: number of panels, acid taste/acid smell extreme and cause irritation (1 ppt): 0 | B: number of panels, acid taste/acid smell slightly strong and slightly cause irritation (1 ppt): 1 | C: number of panels, acid taste/acid smell slightly unpleasant (1 ppt): 3 | Flavor judgment: number of panels who judged acid taste/acid smell quality the highest (1 ppt): 2 | N: number of panels, irritation of acid reduced to give a mild acid taste (1 ppt): 6 | X: number of panels, acid taste reduced but piercing odor characteristic to aldehydes unpleasant (1 ppt): 0 | A: number of panels, acid taste/acid smell extreme and cause irritation (5 ppt): 0 | B: number of panels, acid taste/acid smell slightly strong and slightly cause irritation (5 ppt): 1 | C: number of panels, acid taste/acid smell slightly unpleasant (5 ppt): 2 | Flavor judgment: number of panels who judged acid taste/acid smell quality the highest (5 ppt): 4 | N: number of panels, irritation of acid reduced to give a mild acid taste (5 ppt): 7 | X: number of panels, acid taste reduced but piercing odor characteristic to aldehydes unpleasant (5 ppt): 0 | A: number of panels, acid taste/acid smell extreme and cause irritation (10 ppb): 0 | B: number of panels, acid taste/acid smell slightly strong and slightly cause irritation (10 ppb): 1 | C: number of panels, acid taste/acid smell slightly unpleasant (10 ppb): 2 | Flavor judgment: number of panels who judged acid taste/acid smell quality the highest (10 ppb): 0 | N: number of panels, irritation of acid reduced to give a mild acid taste (10 ppb): 2 | X: number of panels, acid taste reduced but piercing odor characteristic to aldehydes unpleasant (10 ppb): 5 | A: number of panels, acid taste/acid smell extreme and cause irritation (20 ppt): 0 | B: number of panels, acid taste/acid smell slightly strong and slightly cause irritation (20 ppt): 0 | C: number of panels, acid taste/acid smell slightly unpleasant (20 ppt): 3 | Flavor judgment: number of panels who judged acid taste/acid smell quality the highest (20 ppt): 3 | N: number of panels, irritation of acid reduced to give a mild acid taste (20 ppt): 6 | X: number of panels, acid taste reduced but piercing odor characteristic to aldehydes unpleasant (20 ppt): 1 | A: number of panels, acid taste/acid smell extreme and cause irritation (50 ppb): 0 | B: number of panels, acid taste/acid smell slightly strong and slightly cause irritation (50 ppb): 0 | C: number of panels, acid taste/acid smell slightly unpleasant (50 ppb): 1 | Flavor judgment: number of panels who judged acid taste/acid smell quality the highest (50 ppb): 0 | N: number of panels, irritation of acid reduced to give a mild acid taste (50 ppb): 2 | X: number of panels, acid taste reduced but piercing odor characteristic to aldehydes unpleasant (50 ppb): 7 | A: number of panels, acid taste/acid smell extreme and cause irritation (100 ppt): 0 | B: number of panels, acid taste/acid smell slightly strong and slightly cause irritation (100 ppt): 1 | C: number of panels, acid taste/acid smell slightly unpleasant (100 ppt): 3 | Flavor judgment: number of panels who judged acid taste/acid smell quality the highest (100 ppt): 0 | N: number of panels, irritation of acid reduced to give a mild acid taste (100 ppt): 4 | X: number of panels, acid taste reduced but piercing odor characteristic to aldehydes unpleasant (100 ppt): 2 | A: number of panels, acid taste/acid smell extreme and cause irritation (500 ppt): 0 | B: number of panels, acid taste/acid smell slightly strong and slightly cause irritation (500 ppt): 2 | C: number of panels, acid taste/acid smell slightly unpleasant (500 ppt): 2 | Flavor judgment: number of panels who judged acid taste/acid smell quality the highest (500 ppt): 0 | N: number of panels, irritation of acid reduced to give a mild acid taste (500 ppt): 4 | X: number of panels, acid taste reduced but piercing odor characteristic to aldehydes unpleasant (500 ppt): 2
